{
  "source": "patent US9877918B2",
  "about": "“Long-lasting controlled-release liposome composition and method for producing same” (TERUMO KABUSHIKI KAISHA, priority 2011, dated 2018)",
  "assay": "Bupivacaine hydrochloride retention in the administration site after subcutaneous administration",
  "format": "in vivo",
  "details": "rat, SC 3.5 mg/kg, four hours after the administration",
  "experimental": "(6) Concentration of Bupivacaine Hydrochloride in Tissue (mg/mL): Sampled tissue was treated, and, for a supernatant obtained finally by centrifugation, absorbance at 210 nm was determined by high performance liquid chromatography using a UV-visible absorptiometer, to thereby measure the concentration of bupivacaine hydrochloride in the tissue.\nThe bupivacaine hydrochloride liposome preparation prepared in Preparation Example 16 and bupivacaine hydrochloride used alone were subjected to a pharmacokinetic test. The liposome preparation and bupivacaine hydrochloride used alone were administered subcutaneously into a back part of a rat in respective doses as set forth in Table 11 while the doses are set as the amount of bupivacaine hydrochloride. After the lapse of 1, 24, 72, 120, and 168 hours from the administration of the bupivacaine hydrochloride liposome composition, and after the lapse of 0.5, 4, and 24 hours from the administration of bupivacaine hydrochloride used alone, a subcutaneous tissue of the back part in the administration site was sampled and subjected to a homogenizing treatment. […]",
  "note": "Structures can show the parent of a compound that is named as a salt.",
  "data": [
    {"smiles": "CCCCN1CCCCC1C(=O)Nc1c(C)cccc1C", "note": "(stereo not shown) [bupivacaine hydrochloride used alone, Bupivacaine Hydrochloride]", "values": [
      {"measurement": "retention rate in the administration site", "value": "below 1%"}
    ]}
  ]
}
